For assay [1], the system named is lung metastasis of human breast cancer MDA-MB-435 orthotopic xenografts. As to the kind of experiment: Lung metastasis of human breast cancer MDA-MB-435 orthotopic xenografts. Format: in vivo, nude mice (BALB/cA). Conditions: 5 mg/kg, intravenous injection once per week for 7 continuous weeks. On the procedure:
(§1) Human breast cancer MDA-MB-435 cells (from American Type Culture Collection, ATCC, Rockville, Md., USA) in an exponential growth phase at a concentration of 2.5×10^7 cells/ml were inoculated into the second left mammary fat pad of 4-5-week old female nude mice (BALB/cA, provided by Shanghai Institute of Materia Medica, Chinese Academy of Sciences). When the tumors were grown to the size of 100-200 mm^3, the animals were evenly divided according tumor volumes into a negative control group, a doxorubicin injection (Adriamycin, ADM) treatment group (positive control group), and 5 mg/kg and 20 mg/kg PGAS treatment groups (PGAS experimental groups), 20 mice/group. […] In the experiments, a vernier caliper was used to measure the diameter of tumors twice a week, and the tumor volume (V) was calculated following the formula below: V=½×a×b^2
The animals were sacrificed 1 week after discontinuation of dosing. […] The number of lung metastasis nodes per lung was observed and recorded under a dissecting microscope. […] A part of lungs and orthotopic tumor tissues were fixed in 10% formalin, and angiogenesis in tumor tissues was determined by H&E staining and immunohistochemistry.
(§2) At this point of time, the animals are sacrificed and subjected to anti-tumor effect evaluation. […] Further, the effect of PGAS on angiogenesis in vivo was evaluated by immunohistochemical staining.

The subject of assay [2] is human breast cancer MDA-MB-435 orthotopic xenografts. The assay is described as follows: Growth of human breast cancer MDA-MB-435 orthotopic xenografts in nude mice. Type of assay: in vivo, nude mice (BALB/cA). The conditions noted are these: 5 mg/kg, intravenous injection once per week for 7 continuous weeks. As to the method:
as §1
in which, a and b represent the length and the width of tumors, respectively. The relative tumor volume (RTV) was calculated based on the measured results, using the calculation formula: RTVt=Vt/Vo; in which, V0 is the measured tumor volume when animals were divided to different dosing (i.e. d0), and Vt is the tumor volume on the day of measurement. […]
as §2

The text below walks through data of US10058566B2, “Sulfated polygulonic acid polysaccharide or pharmaceutical salt thereof, preparation method therefor and use thereof” (SHANGHAI INSTITUTE OF MATERIA MEDICA CHINESE ACADEMY OF …, priority 2013, dated 2018).

For `COc1cccc2c1C(=O)c1c(O)c3c(c(O)c1C2=O)C[C@@](O)(C(=O)CO)C[C@@H]3O[C@H]1C[C@H](N)[C@H](O)[C@H](C)O1` [ADM, Doxorubicin], in assay [1], the “inhibition rate on lung metastasis” value was determined as 89.8%. Also, the “relative tumor proliferation rate T/C” value in assay [2] is 21.8%.
